Laboratory results: US9073874B2, “Cyclic N,N′-diarylthioureas and N,N′-diarylureas-androgen receptor antagonists, anticancer agent, method for preparation and use thereof” (priority 2010, dated 2015)
“Also recorded” adds a separate entry of the source.

Tests used:
androgen receptors = target: T1, androgen receptors (Homo sapiens, UniProt P10275, T878A); assay: cell-based; assay type: cell-based
T1 construct: host or cells: LNCaP
T1 sequence (P10275 1-920 T878A): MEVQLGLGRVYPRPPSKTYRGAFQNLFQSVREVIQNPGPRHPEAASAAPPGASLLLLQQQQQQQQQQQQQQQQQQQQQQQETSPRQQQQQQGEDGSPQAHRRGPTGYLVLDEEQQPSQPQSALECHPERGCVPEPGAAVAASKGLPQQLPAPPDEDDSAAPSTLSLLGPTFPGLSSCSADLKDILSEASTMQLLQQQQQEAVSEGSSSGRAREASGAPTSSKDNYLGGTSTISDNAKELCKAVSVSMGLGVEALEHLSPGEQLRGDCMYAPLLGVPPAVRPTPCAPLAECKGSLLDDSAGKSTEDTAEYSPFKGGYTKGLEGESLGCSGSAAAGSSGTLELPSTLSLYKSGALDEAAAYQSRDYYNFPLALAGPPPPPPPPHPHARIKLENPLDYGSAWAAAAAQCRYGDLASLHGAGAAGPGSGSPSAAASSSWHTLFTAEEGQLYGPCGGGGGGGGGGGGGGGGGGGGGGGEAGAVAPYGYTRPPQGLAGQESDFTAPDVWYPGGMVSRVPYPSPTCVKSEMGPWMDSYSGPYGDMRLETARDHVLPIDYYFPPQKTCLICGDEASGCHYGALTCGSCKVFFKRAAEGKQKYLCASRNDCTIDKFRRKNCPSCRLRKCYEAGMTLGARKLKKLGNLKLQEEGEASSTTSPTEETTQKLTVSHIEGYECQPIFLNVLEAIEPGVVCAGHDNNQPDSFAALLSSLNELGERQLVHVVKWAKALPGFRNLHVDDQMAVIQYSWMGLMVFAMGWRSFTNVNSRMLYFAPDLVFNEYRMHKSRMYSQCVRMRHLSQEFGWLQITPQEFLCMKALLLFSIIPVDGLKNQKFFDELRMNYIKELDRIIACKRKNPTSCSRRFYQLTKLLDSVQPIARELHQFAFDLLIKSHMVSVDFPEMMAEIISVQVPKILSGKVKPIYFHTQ
Protocol: The expression of PSA was measured in the culture medium 24 hours thereafter (FIG. 1). […] The LnCAP cells were cultured for a further 5 days and the number of viable cells was then calculated.
FIG. 1. Inhibition of DHT-stimulated PSA expression in LnCAP cells.
These cells are sensitive towards 5-a-dihydrotestosterone (DHT) and in the presence thereof produce cancer markers (PSA). […] Before the experiment, the cells were washed and suspended in the same medium, in which, however, a serum treated with charcoal for removal of hormone traces was used instead of calf serum. The cells (10 000 in total) were embedded into the wells of 96-well plates at 100 μl per well and left for 4 days in an incubator at 37° C. […] The cells were incubated for a further 5 days under the same conditions. Then, samples of the supracellular medium were taken and analyzed for PSA. The test was carried out according to the protocol recommended by the manufacturer of the kit for PSA measurement (Alpha Diagnostic International, USA). After wetting the wells containing PSA antibodies attached to their bottoms, 25 μl of test compounds and 100 μl of PSA antibodies pre-conjugated to horseradish peroxidase were added successively to each well. Following a 30-minute incubation at room temperature, the content of each well was removed, the wells were washed several times, and 100 μl of a peroxidase chromogenic substrate was then added to each well. […] Based on data about the dependence of DHT-related reduction of PSA synthesis on the concentration of test compounds, dose-response curves were plotted to determine IC50 values. Said values were used for calculating apparent inhibition constants (Ki) for compounds of general formula I according to Cheng-Prusoff equation. [Cheng, Y., Prusoff, W. H. “Relationship between the inhibition constant (Ki) and the concentration of inhibitor which causes 50 percent inhibition (IC50) of an enzymatic reaction”. Biochem Pharmacol.

CYP 3A = CYP 3A induction assay; assay type: in vitro ADME
[1] = Distribution in plasma, brain and prostate after single IV administration in rats; assay type: in vivo; details: for concentration at 30 min / concentration at 120 min: rat, plasma; for concentration at 30 min / concentration at 120 min / Brain / Plasma / Prostate: Mean ± SD, n = 3
LnCAP-Z2 tumors = assay: Prostate cancer xenograft model, SCID male mice bearing LnCAP-Z2 tumors; assay type: in vivo; details: analysis of individual tumors, 21 days oral
Protocol: SCID male mice bearing LnCAP-Z2 tumors (mean volume˜160-190 mm^3) were treated daily by oral gavage with vehicle or drugs for 21 days. Individual tumor volume change by the end of the study. Percentage of change in individual tumor volumes as compared to the start of treatment.
FIG. 6. […] SCID male mice bearing LnCAP-Z2 tumors (mean volume˜160-190 mm^3) treated daily by oral gavage with vehicle or drugs for 21 days. Individual tumor volume change by the end of the study. Percentage of change in individual tumor volumes compared to the start of treatment.
FIG. 7. […] SCID male mice bearing LnCAP-Z2 tumors (mean volume˜160-190 mm^3) treated daily by oral gavage with vehicle or drugs for 21 days. (A)—Tumor weight by the end of the study. Mean±SEM are presented. […] (B)—PSA expression by the end of the study. Plasma samples were collected 24 hours after the last drug administration. Mean±SEM are presented.
The antitumor efficacy of (R)-1 was tested in a xenograft model of prostate cancer (FIGS. 6 and 7). Male immunodeficient mice harboring LnCAP-Z2 tumors were treated orally for 21 days with either vehicle or (R)-1 at 20 and 50 mg/kg once daily and at 20 mg/kg twice daily. […] Twenty-four hours after last treatment, blood samples were collected from all animals and used for measuring PSA expression and drug concentration. In addition, the concentration of drugs and Ki67 expression were measured in tumor samples.

[2] = Maximum tolerated dose, peroral once a day for 5 days in CD1 male mice; assay type: in vivo
Protocol: The maximum tolerated doses (MTD) of novel antagonists (R)-1 and their analog Ia were determined in experiments on CD1 male mice at peroral administration once a day for 5 days in doses of 10, 30, and 100 mg/kg. The compound was dissolved in sterile water with addition of Tween 80. Sterile water with Tween 80 was given to control animals (Placebo group). Animals' body weight and mortality rate were estimated. Statistical comparison of groups was carried out according to a non-parametric ANOVA test using Statistica software.

[3] = CD1 male mice, peroral, 100 mg/kg

In the case of CNC(=O)c1ccc(N2C(=S)N(c3ccc(C#N)c(C(F)(F)F)c3)C(=O)C23CCOC3)cc1F (racemic) [compound 1, 4-[3-(4-Cyano-3-trifluoromethyl-phenyl)-4-oxo-2-thioxo-7-oxa-1,3-diaza-spiro[4.4]non-1-yl]-2-fluoro-N-methyl-benzamide], the “AR antagonistic activity (in words)” value (androgen receptors) is reported as “comparable with that of Ia”.

Work on CNC(=O)c1ccc(N2C(=S)N(c3ccc(C#N)c(C(F)(F)F)c3)C(=O)[C@@]23CCOC3)cc1F [(S)-1] yielded a Ki (androgen receptors) of 215 nM.

With CNC(=O)c1ccc(N2C(=S)N(c3cnc(C#N)c(C(F)(F)F)c3)C(=O)C23CCC3)cc1F [III] the “Positive control, % (CYP 3A induction)” value (CYP 3A; Concentration 1 μM) was 16.3 ± 2.5%, the “Positive control, % (CYP 3A induction)” value (CYP 3A; Concentration 10 μM) was 102.7 ± 13.0% and the concentration at 30 min ([1]; single IV 1 mg/kg, 30 min) was 251 ± 29 ng/mL. It also gave a concentration at 120 min ([1]; single IV 1 mg/kg, 120 min) of 153 ± 10 ng/mL, a Brain/Plasma ([1]; single IV 1 mg/kg, 30 min) of 0.96 ± 0.03 and a Prostate/Plasma ([1]; single IV 1 mg/kg, 30 min) of 1.94 ± 0.24. The Brain ([1]; single IV 1 mg/kg, 30 min) was 241 ± 21 ng/g, the Plasma ([1]; single IV 1 mg/kg, 30 min) was 251 ± 29 ng/mL and the Prostate ([1]; single IV 1 mg/kg, 30 min) was 487 ± 73 ng/g. The Brain/Plasma ([1]; single IV 1 mg/kg, 120 min) was 1.15 ± 0.27, the Prostate/Plasma ([1]; single IV 1 mg/kg, 120 min) was 3.15 ± 0.94 and the Brain ([1]; single IV 1 mg/kg, 120 min) was 176 ± 31 ng/g. The Plasma ([1]; single IV 1 mg/kg, 120 min) was 153 ± 10 ng/mL and the Prostate ([1]; single IV 1 mg/kg, 120 min) was 482 ± 120 ng/g.

With CNC(=O)c1ccc(N2C(=S)N(c3ccc(C#N)c(C(F)(F)F)c3)C(=O)C2(C)C)cc1F [Ia, MDV3100] the “Positive control, % (CYP 3A induction)” value (CYP 3A; Concentration 1 μM) was 10.0 ± 2.0%, the “Positive control, % (CYP 3A induction)” value (CYP 3A; Concentration 10 μM) was 73.3 ± 6.8% and the concentration at 30 min ([1]; single IV 2 mg/kg, 30 min) was 263 ± 19 ng/mL. It also gave a concentration at 120 min ([1]; single IV 2 mg/kg, 120 min) of 377 ± 153 ng/mL, a Brain ([1]; single IV 2 mg/kg, 30 min) of 164 ± 19 ng/g and a Plasma ([1]; single IV 2 mg/kg, 30 min) of 263 ± 19 ng/mL. For the same compound, the Prostate ([1]; single IV 2 mg/kg, 30 min) was 102 ± 4 ng/g, the Brain ([1]; single IV 2 mg/kg, 120 min) was 152 ± 31 ng/g and the Plasma ([1]; single IV 2 mg/kg, 120 min) was 377 ± 153 ng/mL. The Prostate ([1]; single IV 2 mg/kg, 120 min) was 124 ± 27 ng/g, the “effect on individual tumors (in words)” value (LnCAP-Z2 tumors) was “stimulate tumor regression” and the MTD at 5 days ([2]; CD1, mouse, in vivo, oral, male CD-1 mice, peroral once a day for 5 days) was ~30 mg/kg. The “p, body weight versus Placebo group” value ([2]; CD1 male mice, 100 mg/kg, 5th day) was 0.002, the “body weight versus control animals (Placebo group)” value [2, 3] was “statistically differed” and the mortality [2, 3] was “One animal died”. The mortality ([2]; CD1 male mice, peroral, doses below 100 mg/kg (10 and 30 mg/kg)) was “did not lead to death; also recorded: did not cause death” and the “maximum tolerated dose (MTD)” value ([2]; male CD-1 mice, peroral once a day for 5 days) was “about 30 mg/kg”.
